This experiment deals with P388 leukemia ip, CD2F1 mice, survival T/C. The experiment is described as follows: NCI In Vivo Anticancer Drug Screen. Data for tumor model P388 Leukemia (intraperitoneal) in CD2F1 (CDF1) mice. Particulars: endpoint: median survival time, higher = longer survival. Summed up:
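Mice carrying the transplanted tumor received test compound or vehicle. Survival was recorded in each group, and the value is the treated-group measurement divided by that of the vehicle-treated control group.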

[1] abbreviates: dose: 12.5 mg/kg/injection, schedule: Q01DX005 (ip), vehicle: saline with Tween-80.
The mark [2] stands for this setting: dose: 50.0 mg/kg/injection, schedule: Q01DX005 (ip), vehicle: saline with Tween-80.
[3] abbreviates: dose: 100.0 mg/kg/injection, schedule: Q01DX005 (ip), vehicle: saline with Tween-80.
The mark [4] stands for this setting: dose: 200.0 mg/kg/injection, schedule: Q01DX005 (ip), vehicle: saline with Tween-80.
The mark [5] stands for this setting: dose: 0.25 mg/kg/injection, schedule: Q01DX009 (ip), vehicle: saline.
Where [6] appears, read: dose: 0.5 mg/kg/injection, schedule: Q01DX009 (ip), vehicle: saline.
Setting [7] is: dose: 1.0 mg/kg/injection, schedule: Q01DX009 (ip), vehicle: saline.
The mark [8] stands for this setting: dose: 8.0 mg/kg/injection, schedule: Q01DX009 (ip), vehicle: saline.
Setting [9] is: dose: 16.0 mg/kg/injection, schedule: Q01DX009 (ip), vehicle: saline.
Where [10] appears, read: dose: 25.0 mg/kg/injection, schedule: Q01DX009 (ip), vehicle: saline with Tween-80.
[11] abbreviates: dose: 50.0 mg/kg/injection, schedule: Q01DX009 (ip), vehicle: saline with Tween-80.
[12] abbreviates: dose: 100.0 mg/kg/injection, schedule: Q01DX009 (ip), vehicle: saline with Tween-80.

Several values for one entry are separate records, joined by “and”; a condition that tells them apart may be missing. Equal entries are not always repeated. Toxic doses and inconclusive results are not listed.

For the molecule `Cc1ccc(/C=N/N=c2/sc3ccccc3n2CC(=O)O)cc1`, the T/C is 98 % of control (dose: 100.0 mg/kg/injection, schedule: Q01DX001 (ip), vehicle: saline with Tween-80); 92 % of control (dose: 200.0 mg/kg/injection, schedule: Q01DX001 (ip), vehicle: saline with Tween-80); 89 % of control (dose: 400.0 mg/kg/injection, schedule: Q01DX001 (ip), vehicle: saline with Tween-80).
For `Cc1nn(-c2ccccc2)c2oc3ccc(Cl)cc3c(=O)c12`, the T/C is, setting by setting: (dose: 60.0 mg/kg/injection, schedule: Q01DX005 (ip), vehicle: saline) 96 % of control; (dose: 120.0 mg/kg/injection, schedule: Q01DX005 (ip), vehicle: saline) 92 % of control.
Take `CC(C)CCN(CCC(C)C)CC(O)c1cc2c(c3ccccc13)CCCC2` (stereo unspecified): the T/C by setting is: under setting [1], 96 % of control; (dose: 25.0 mg/kg/injection, schedule: Q01DX005 (ip), vehicle: saline with Tween-80) 93 % of control; under setting [2], 103 % of control and 93 % of control; under setting [3], 113 % of control; under setting [4], 108 % of control.
With `CCOC(=O)C(CC(C)C)NC(=O)C(Cc1ccc(N(CCCl)CCCl)cc1)NC(C)=O` (stereo unspecified), the T/C reads like this: under setting [5], 101 % of control; under setting [6], 115 % of control; under setting [7], 111 % of control; (dose: 2.0 mg/kg/injection, schedule: Q01DX009 (ip), vehicle: Klucel (hydroxypropylcellulose) (HPC)) 109 % of control; (dose: 2.0 mg/kg/injection, schedule: Q01DX009 (ip), vehicle: olive oil, sesame oil, peanut oil) 111 % of control; (dose: 2.0 mg/kg/injection, schedule: Q01DX009 (ip), vehicle: saline with Tween-80) 100 % of control. In addition, the T/C was 110 % of control (dose: 4.0 mg/kg/injection, schedule: Q01DX009 (ip), vehicle: Klucel (hydroxypropylcellulose) (HPC)); 120 % of control (dose: 4.0 mg/kg/injection, schedule: Q01DX009 (ip), vehicle: olive oil, sesame oil, peanut oil); 100 % of control (dose: 4.0 mg/kg/injection, schedule: Q01DX009 (ip), vehicle: saline with Tween-80); 120 % of control (dose: 8.0 mg/kg/injection, schedule: Q01DX009 (ip), vehicle: Klucel (hydroxypropylcellulose) (HPC)); 109 % of control (dose: 8.0 mg/kg/injection, schedule: Q01DX009 (ip), vehicle: saline with Tween-80); 163 % of control under setting [8]. The T/C is 116 % of control (dose: 12.5 mg/kg/injection, schedule: Q01DX005 (iv), vehicle: Klucel (hydroxypropylcellulose) (HPC)); 111 % of control (dose: 16.0 mg/kg/injection, schedule: Q01DX009 (ip), vehicle: saline with Tween-80); 163 % of control and 225 % of control under setting [9]; 152 % of control (dose: 16.0 mg/kg/injection, schedule: Q04DX003 (ip), vehicle: saline with Tween-80); 152 % of control (dose: 18.9 mg/kg/injection, schedule: Q04DX003 (ip), vehicle: saline with Tween-80); 174 % of control (dose: 25.0 mg/kg/injection, schedule: Q01DX005 (ip), vehicle: Klucel (hydroxypropylcellulose) (HPC)). In addition, the T/C is 161 % of control (dose: 28.4 mg/kg/injection, schedule: Q04DX003 (ip), vehicle: saline with Tween-80); 172 % of control (dose: 32.0 mg/kg/injection, schedule: Q01DX009 (ip), vehicle: Klucel (hydroxypropylcellulose) (HPC)); 175 % of control (dose: 32.0 mg/kg/injection, schedule: Q01DX009 (ip), vehicle: olive oil, sesame oil, peanut oil); 117 % of control (dose: 32.0 mg/kg/injection, schedule: Q01DX009 (ip), vehicle: saline with Tween-80); 189 % of control (dose: 32.0 mg/kg/injection, schedule: Q04DX003 (ip), vehicle: saline with Tween-80); 172 % of control (dose: 42.6 mg/kg/injection, schedule: Q04DX003 (ip), vehicle: saline with Tween-80). The T/C was 230 % of control (dose: 50.0 mg/kg/injection, schedule: Q01DX005 (ip), vehicle: Klucel (hydroxypropylcellulose) (HPC)); 156 % of control (dose: 50.0 mg/kg/injection, schedule: Q01DX005 (iv), vehicle: Klucel (hydroxypropylcellulose) (HPC)); 151 % of control (dose: 64.0 mg/kg/injection, schedule: Q01DX009 (ip), vehicle: Klucel (hydroxypropylcellulose) (HPC)); 188 % of control and 211 % of control (dose: 64.0 mg/kg/injection, schedule: Q04DX003 (ip), vehicle: saline with Tween-80); 170 % of control (dose: 96.0 mg/kg/injection, schedule: Q04DX003 (ip), vehicle: saline with Tween-80); 152 % of control (dose: 128.0 mg/kg/injection, schedule: Q01DX009 (ip), vehicle: saline with Tween-80). In addition, the T/C is 151 % of control (dose: 256.0 mg/kg/injection, schedule: Q01DX009 (ip), vehicle: other); 152 % of control and 157 % of control (dose: 256.0 mg/kg/injection, schedule: Q01DX009 (ip), vehicle: saline with Tween-80); 179 % of control (dose: 512.0 mg/kg/injection, schedule: Q01DX009 (ip), vehicle: other); 185 % of control (dose: 512.0 mg/kg/injection, schedule: Q01DX009 (ip), vehicle: saline with Tween-80).
For the molecule `CC(=O)Nc1ccc(C)cc1C1SCCS1`, the T/C reads like this: under setting [10], 90 % of control; under setting [11], 105 % of control; under setting [12], 97 % of control.
Consider `C1=NCCCCCCCN=Cc2ccccc2NCCNc2ccccc21`, for which the T/C runs as follows: (dose: 100.0 mg/kg/injection, schedule: Q04DX003 (ip), vehicle: saline) 94 % of control; (dose: 200.0 mg/kg/injection, schedule: Q04DX003 (ip), vehicle: saline) 92 % of control; (dose: 400.0 mg/kg/injection, schedule: Q04DX003 (ip), vehicle: saline) 108 % of control.
With `CC1(O)/C=C\C=C(\CO)C2CC(C)(C)C2(O)CC1` (stereo unspecified), the T/C reads like this: (dose: 6625.0 micrograms/kg/injection, schedule: Q01DX005 (ip), vehicle: Klucel (hydroxypropylcellulose) (HPC)) 100 % of control; (dose: 13250.0 micrograms/kg/injection, schedule: Q01DX005 (ip), vehicle: Klucel (hydroxypropylcellulose) (HPC)) 98 % of control; (dose: 26500.0 micrograms/kg/injection, schedule: Q01DX005 (ip), vehicle: Klucel (hydroxypropylcellulose) (HPC)) 94 % of control; (dose: 53000.0 micrograms/kg/injection, schedule: Q01DX005 (ip), vehicle: Klucel (hydroxypropylcellulose) (HPC)) 87 % of control.
Take `N[C@H](C(=O)O)[C@H]1ON=C(Cl)[C@@H]1O`: the T/C runs as follows: (dose: 0.13 mg/kg/injection, schedule: Q01DX009 (ip), vehicle: saline) 104 % of control and 98 % of control; under setting [5], 106 % of control and 113 % of control; under setting [6], 112 % of control; under setting [7], 117 % of control and 121 % of control; (dose: 2.0 mg/kg/injection, schedule: Q01DX009 (ip), vehicle: saline) 124 % of control; (dose: 4.0 mg/kg/injection, schedule: Q01DX009 (ip), vehicle: saline) 153 % of control. Moreover, the T/C runs as follows: under setting [8], 153 % of control; under setting [9], 198 % of control.
Consider `CC(C)=CC[P+](CP(c1ccccc1)c1ccccc1)(c1ccccc1)c1ccccc1`, for which the T/C by setting is: (dose: 3.12 mg/kg/injection, schedule: Q01DX005 (ip), vehicle: saline with Tween-80) 107 % of control; (dose: 6.25 mg/kg/injection, schedule: Q01DX005 (ip), vehicle: saline with Tween-80) 105 % of control; under setting [1], 89 % of control.
For the molecule `CN1CCC(O)(O)C(Cl)(Cl)C1`, the T/C runs as follows: (dose: 50.0 mg/kg/injection, schedule: Q01DX005 (ip), vehicle: suspension in saline) 104 % of control; (dose: 100.0 mg/kg/injection, schedule: Q01DX005 (ip), vehicle: suspension in saline) 99 % of control; (dose: 200.0 mg/kg/injection, schedule: Q01DX005 (ip), vehicle: suspension in saline) 95 % of control.
Consider `Cc1ccc(C)c2c1-c1ccccc1S2(=O)=O`, for which the T/C is, setting by setting: under setting [10], 110 % of control; under setting [11], 111 % of control; under setting [12], 109 % of control; (dose: 200.0 mg/kg/injection, schedule: Q01DX009 (ip), vehicle: saline with Tween-80) 102 % of control.
`ClC1CC(C(Cl)(Cl)Cl)CCC1C(Cl)(Cl)Cl` (stereo unspecified): the T/C runs as follows: under setting [2], 98 % of control; under setting [3], 96 % of control; under setting [4], 96 % of control.
Regarding `O=S1(=O)OC(c2ccc(O)c(O)c2)(c2ccc(O)c(O)c2)c2ccccc21`, the T/C (dose: 100.0 mg/kg/injection, schedule: Q01DX009 (ip), vehicle: saline) was 100 % of control and 98 % of control.

The record behind these values is PubChem BioAssay AID330 (DTP/NCI, 2004).
